Values after ≈ are worked out from the molar mass of the structure shown. Read-outs that look alike come from different tables or passages of the source.
Columns and labels:
physchem = experiment: physchem
Procedure: 0.1 M NaOH in H2O/MeOH (1 : 1 v/v).
The acidity constants of benzosiloxaboroles 1e, 2e, 6, 20 and 22–24 were determined by standard pH titration with 0.05 M aq. NaOH. The measurements were performed using a thermostated (25.0 °C) glass vessel equipped with a magnetic stirrer and a 10 mL burette. Prior to the measurement, the pH glass electrode was calibrated using borax and phosphate buffers. A solution of the analyzed compound (ca. 20–40 mg) in a mixture of MeOH/H2O (v/v 1 : 1, 30 mL) was titrated until the pH of the solution exceeded the value of 12.0.

E. faecalis ATCC 29212 = experiment: Antibacterial activity: MIC/MBC determination and disc-diffusion; type: cell-based; conditions: Enterococcus faecalis, ATCC29212
Procedure, shortened: (§1)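 MIC and disc-diffusion testing used EUCAST and CLSI guidance, and bactericidal and fungicidal endpoints used CLSI methods. Before testing, yeasts were grown twice on Sabouraud dextrose agar and bacteria twice on TSA, 24–48 h at 30 °C. DMSO was the compound solvent, with linezolid (Gram-positive) and fluconazole (fungi) as references.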

E. faecium ATCC 6057 = experiment: as above; type: cell-based; conditions: Enterococcus faecium, ATCC6057
Procedure, shortened: as §1

[1] = system: S. epidermidis ATCC 12228; experiment: as above; type: cell-based; conditions: Staphylococcus epidermidis, ATCC12228
Procedure, shortened: as §1

[2] = system: S. aureus NMI 1576 K MRSA; experiment: Antibacterial activity against clinical MRSA: MIC/MBC; type: cell-based; conditions: Staphylococcus aureus
Procedure: (§2) Direct antimicrobial activity was determined against the following standard strains: (1) Gram-positive cocci: methicillin-sensitive Staphylococcus aureus ATCC 6538P (MSSA), methicillin-resistant S. aureus subsp. aureus ATCC 43300 (MRSA), S. epidermidis ATCC 12228, Enterococcus faecium ATCC 6057, E. faecalis ATCC 29212, Bacillus subtilis ATCC 6633; (2) Gram-negative bacteria from Enterobacteriales order: Klebsiella pneumoniae ATCC 13883, Escherichia coli ATCC 25922, Enterobacter cloacae DSM 6234, Proteus mirabilis ATCC 12453, Serratia marcescens ATCC 13880; (3) Gram-negative non-fermentative rods: Acinetobacter baumannii ATCC 19606, Pseudomonas aeruginosa ATCC 27853, Stenotrophomonas maltophilia ATCC 12714, S. maltophilia ATCC 13637, Burkholderia cepacia ATCC 25416, Bordetella bronchiseptica ATCC 4617; (4) yeasts: Candida albicans ATCC 90028, C. krusei ATCC 6258, C. parapsilosis ATCC 22019, C. tropicalis (Castellani) Berkhout ATCC 750, C. tropicalis IBA 171, C. guilliermondii IBA 155, and Saccharomyces cerevisiae ATCC 9763. Moreover, 5 clinical strains of methicillin-resistant S. aureus were also included: NMI 664 K, NMI 1576 K, NMI 1712 K, NMI 1991 K, and NMI 2541 K. All strains were stored at −80 °C. Prior to testing, each bacterial strain was subcultured twice on tryptic soy agar TSA (bioMerieux) medium and yeast strains on Sabouraud dextrose agar (bioMerieux) for 24–48 h at 30 °C to ensure viability. The antimicrobial activity was evaluated as previously described[26] by the disc-diffusion method and the MIC determination assays according to the EUCAST (ref. [71] and [72]) and CLSI (ref. [53] and [73]) recommendations. Assessment of bactericidal (MBC) and fungicidal (MFC) activities was performed according to the CLSI recommendations.[54,74] The following reference agents were used: fluconazole (in the case of fungi), linezolid (for Gram-positive bacteria), and nitrofurantoin (for Gram-negative rods). The new benzosiloxaboroles were dissolved in DMSO (Sigma).

[3] = system: S. aureus NMI 1712 K MRSA; experiment: as above; type: cell-based; conditions: Staphylococcus aureus
Procedure: as §2

[4] = system: S. aureus NMI 1991 K MRSA; experiment: as above; type: cell-based; conditions: Staphylococcus aureus
Procedure: as §2

[5] = system: S. aureus NMI 2541 K MRSA; experiment: as above; type: cell-based; conditions: Staphylococcus aureus
Procedure: as §2

S. aureus NMI 664 K MRSA = experiment: as above; type: cell-based; conditions: Staphylococcus aureus
Procedure: as §2

[6] = system: Human normal lung fibroblasts MRC-5; experiment: MTT-based viability (cytotoxicity) assay; conditions: for IC50: Homo sapiens, MRC5, 48 h
Procedure, shortened: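 MRC-5 pd30 human lung fibroblasts in supplemented MEME at 37 °C, 5% CO2; viability by MTT, absorbance 570 nm, triplicate, as percent of control cells. Selectivity index taken as IC50/MIC against S. aureus MRSA strains.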

[7] = system: Staphylococcus aureus, MSSA and MRSA strains; experiment: Antibacterial activity against S. aureus strains (text summaries); type: cell-based; conditions: for Eagle effect (paradoxical growth) during MBC determination: S. aureus ATCC 6538P and five MRSA clinical strains; for MIC: Staphylococcus aureus
Procedure: as §2

[8] = E. faecalis ATCC 29212, read-out: MIC
[9] = E. faecium ATCC 6057, read-out: MIC
[10] = S. epidermidis ATCC 12228, read-out: MIC
[11] = NMI 1576 K MRSA, read-out: MBC (first MBC where Eagle effect)
[12] = NMI 1712 K MRSA, read-out: MBC (first MBC where Eagle effect)
[13] = NMI 1991 K MRSA, read-out: MBC (first MBC where Eagle effect)
[14] = NMI 2541 K MRSA, read-out: MBC (first MBC where Eagle effect)
[15] = NMI 664 K MRSA, read-out: MBC (first MBC where Eagle effect)
[16] = both MSSA and MRSA strains, read-out: MIC values against Staphylococcus aureus
[17] = MRSA, read-out: MBC (first MBC where Eagle effect)
[18] = MRSA, read-out: second MBC (Eagle effect)

| Compound | pKa (physchem) | MIC (E. faecalis ATCC 29212; [8]) | MIC (E. faecium ATCC 6057; [9]) | MIC [1, 10] | MBC [2, 11] | MIC ([2]; NMI 1576 K MRSA, read-out: MIC) | MBC [3, 12] | MIC ([3]; NMI 1712 K MRSA, read-out: MIC) | MBC [4, 13] | MIC ([4]; NMI 1991 K MRSA, read-out: MIC) | MBC [5, 14] | viability of MRC-5 ([6]; 6.25 µg·mL−1, 48 h) | viability of MRC-5 ([6]; 12.5 µg·mL−1, 48 h) | viability of MRC-5 ([6]; 25 µg·mL−1, 48 h) | viability of MRC-5 ([6]; 50 µg·mL−1, 48 h) | viability of MRC-5 ([6]; 100 µg·mL−1, 48 h) | viability of MRC-5 ([6]; 200 µg·mL−1, 48 h) | viability of MRC-5 ([6]; 400 µg·mL−1, 48 h) | IC50 [6] | MIC [7, 16] | other results |
| --- | --- | --- | --- | --- | --- | --- | --- | --- | --- | --- | --- | --- | --- | --- | --- | --- | --- | --- | --- | --- | --- |
| C[Si]1(C)OB(O)c2cc(F)c(SCCC#N)c(F)c21 [Compound 6, 3-((5,7-Difluoro-3-hydroxy-1,1-dimethyl-1,3-dihydrobenzo[c][1,2,5]oxasilaborol-6-yl)thio)propanenitrile] | 5.2 | 400 µg/mL (≈ 1340 µM) | 400 µg/mL (≈ 1340 µM) | 50 µg/mL (≈ 167 µM) | 25 µg/mL (≈ 83.6 µM) | 12.5 µg/mL (≈ 41.8 µM) | 12.5 µg/mL (≈ 41.8 µM) | 12.5 µg/mL (≈ 41.8 µM) | 25 µg/mL (≈ 83.6 µM) | 12.5 µg/mL (≈ 41.8 µM) | 25 µg/mL (≈ 83.6 µM) | 104.0±5.7 % of control ± SD | 112.1±1.8 % of control ± SD | 104.7±6.7 % of control ± SD | 108.3±3.0 % of control ± SD | 90.4±0.5 % of control ± SD | 43.6±5.1 % of control ± SD | 29.5±5.8 % of control ± SD | 140 µg/mL (≈ 468 µM) | 1.56 to 12.5 µg/mL (≈ 5.21 to 41.8 µM) | MBC ([2]; NMI 1576 K MRSA, read-out: second MBC (Eagle effect)): > 400 µg/mL; MBC ([3]; NMI 1712 K MRSA, read-out: second MBC (Eagle effect)): > 400 µg/mL; MBC ([4]; NMI 1991 K MRSA, read-out: second MBC (Eagle effect)): > 400 µg/mL; MIC ([5]; NMI 2541 K MRSA, read-out: MIC): 12.5 µg/mL (≈ 41.8 µM); MBC ([5]; NMI 2541 K MRSA, read-out: second MBC (Eagle effect)): > 400 µg/mL; MBC (S. aureus NMI 664 K MRSA; [15]): 25 µg/mL (≈ 83.6 µM); MIC (S. aureus NMI 664 K MRSA; NMI 664 K MRSA, read-out: MIC): 12.5 µg/mL (≈ 41.8 µM); MBC (S. aureus NMI 664 K MRSA; NMI 664 K MRSA, read-out: second MBC (Eagle effect)): > 400 µg/mL; Eagle effect (paradoxical growth) during MBC determination [7]: Eagle effect |
| CC(=O)CSc1ccc2c(c1F)[Si](C)(C)OB2O [Compound 22, 1-((7-Fluoro-3-hydroxy-1,1-dimethyl-1,3-dihydrobenzo[c][1,2,5]oxasilaborol-6-yl)thio)propan-2-one] | 6.4 | 25 µg/mL (≈ 88 µM) | 25 µg/mL (≈ 88 µM) | 6.25 µg/mL (≈ 22 µM) | 200 µg/mL (≈ 704 µM) | 6.25 µg/mL (≈ 22 µM) | 400 µg/mL (≈ 1410 µM) | 6.25 µg/mL (≈ 22 µM) | 200 µg/mL (≈ 704 µM) | 3.12 µg/mL (≈ 11 µM) | 200 µg/mL (≈ 704 µM) | 92.1±0.1 % of control ± SD | 91.5±2.5 % of control ± SD | 85.2±1.1 % of control ± SD | 94.4±2.1 % of control ± SD | 78.4±4.5 % of control ± SD | 69.6±3.7 % of control ± SD | 41.4±0.4 % of control ± SD | > 200 µg/mL | 1.56 to 12.5 µg/mL (≈ 5.49 to 44 µM) | MBC (E. faecalis ATCC 29212; E. faecalis ATCC 29212): 400 µg/mL (≈ 1410 µM); MBC ([1]; S. epidermidis ATCC 12228): 12.5 µg/mL (≈ 44 µM); MIC ([5]; NMI 2541 K MRSA, read-out: MIC): 3.12 µg/mL (≈ 11 µM); MBC (S. aureus NMI 664 K MRSA; [15]): 200 µg/mL (≈ 704 µM); MIC (S. aureus NMI 664 K MRSA; NMI 664 K MRSA, read-out: MIC): 6.25 µg/mL (≈ 22 µM); MIC ([7]; standard and five clinical MRSA strains (Table 4), read-out: MIC (MRSA)): 3.12 to 6.25 µg/mL (≈ 11 to 22 µM) |
| CCOP(=O)(OCC)Sc1c(F)cc2c(c1F)[Si](C)(C)OB2O [Compound 24, S-(5,7-Difluoro-3-hydroxy-1,1-dimethyl-1,3-dihydrobenzo[c][1,2,5]oxasilaborol-6-yl) O,O-diethyl phosphorothioate] | 4.9 |  |  |  |  |  |  |  |  |  |  | 95.5±1.4 % of control ± SD | 83.9±0.1 % of control ± SD | 81.6±2.6 % of control ± SD | 78.2±3.0 % of control ± SD | 73.0±4.0 % of control ± SD | 76.5±3.8 % of control ± SD | 60.5±3.8 % of control ± SD | > 400 µg/mL | 1.56 to 12.5 µg/mL (≈ 4.08 to 32.7 µM) | MIC (E. faecalis ATCC 29212): > 400 µg/mL; MIC (E. faecium ATCC 6057): 400 µg/mL (≈ 1050 µM); MIC [1]: 100 µg/mL (≈ 262 µM); MIC ([2]; MRSA): 6.25 µg/mL (≈ 16.4 µM); MBC [2, 17]: 12.5 µg/mL (≈ 32.7 µM); MBC [2, 18]: 400 µg/mL (≈ 1050 µM); MIC ([3]; MRSA): 12.5 µg/mL (≈ 32.7 µM); MBC [3, 17]: 25 µg/mL (≈ 65.4 µM); MBC [3, 18]: > 400 µg/mL; MIC ([4]; MRSA): 12.5 µg/mL (≈ 32.7 µM); MBC [4, 17]: 12.5 µg/mL (≈ 32.7 µM); MBC [4, 18]: > 400 µg/mL; MIC ([5]; MRSA): 12.5 µg/mL (≈ 32.7 µM); MBC [5, 17]: 12.5 µg/mL (≈ 32.7 µM); MBC [5, 18]: > 400 µg/mL; MIC (S. aureus NMI 664 K MRSA; MRSA): 6.25 µg/mL (≈ 16.4 µM); MBC (S. aureus NMI 664 K MRSA; [17]): 25 µg/mL (≈ 65.4 µM); MBC (S. aureus NMI 664 K MRSA; [18]): > 400 µg/mL; Eagle effect (paradoxical growth) during MBC determination [7]: Eagle effect |

Reference: paper PMC11110727, “Exploiting thiol-functionalized benzosiloxaboroles for achieving diverse substitution patterns – synthesis, characterization and biological evaluation of promising antibacterial agents” (RSC Medicinal Chemistry, 2024)
